Laboratory results reported in ChEMBL document CHEMBL1129309, “Asymmetric syntheses, opioid receptor affinities, and antinociceptive effects of 8-amino-5,9-methanobenzocyclooctenes, a new class of structural analogues of the morphine alkaloids” (J Med Chem, 1996).
pKi: −log10 of the molar value.

Experiments:
Mus musculus [1] = experiment: Percent activity against delta selective antinociception when given icv injection at a dose of 10 nmol 20 min before mouse tail flick test; assay type: functional
Mus musculus [2] = experiment: Percent activity against delta selective antinociception when given icv injection at a dose of 10 nmol 20 min before the mouse tail flick test along with 4 nmol ICI 174864; assay type: functional
[3] = molecular target: Kappa-type opioid receptor (Cavia porcellus, UniProt P41144); experiment: Activity was evaluated by inhibition of the binding of 1 nM [3H]U-69593 at Opioid receptor kappa 1 binding site
Kappa-type opioid receptor, sequence (P41144 whole entry): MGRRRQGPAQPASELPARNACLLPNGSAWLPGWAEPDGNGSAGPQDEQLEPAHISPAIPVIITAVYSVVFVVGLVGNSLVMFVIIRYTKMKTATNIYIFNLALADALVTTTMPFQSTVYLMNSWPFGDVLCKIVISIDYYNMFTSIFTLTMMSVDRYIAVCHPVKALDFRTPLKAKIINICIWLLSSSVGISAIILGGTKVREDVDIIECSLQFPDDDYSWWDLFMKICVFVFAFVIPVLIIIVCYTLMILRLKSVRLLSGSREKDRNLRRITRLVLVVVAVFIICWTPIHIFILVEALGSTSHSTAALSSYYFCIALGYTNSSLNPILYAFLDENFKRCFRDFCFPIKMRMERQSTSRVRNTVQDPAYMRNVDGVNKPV

Mu-type opioid receptor = Mu-type opioid receptor (Bos taurus, UniProt P79350); experiment: Activity was evaluated by inhibition of the binding of 0.8 nM [3H]- DAMGO at Opioid receptor mu 1 binding site
Mu-type opioid receptor, sequence (P79350 whole entry): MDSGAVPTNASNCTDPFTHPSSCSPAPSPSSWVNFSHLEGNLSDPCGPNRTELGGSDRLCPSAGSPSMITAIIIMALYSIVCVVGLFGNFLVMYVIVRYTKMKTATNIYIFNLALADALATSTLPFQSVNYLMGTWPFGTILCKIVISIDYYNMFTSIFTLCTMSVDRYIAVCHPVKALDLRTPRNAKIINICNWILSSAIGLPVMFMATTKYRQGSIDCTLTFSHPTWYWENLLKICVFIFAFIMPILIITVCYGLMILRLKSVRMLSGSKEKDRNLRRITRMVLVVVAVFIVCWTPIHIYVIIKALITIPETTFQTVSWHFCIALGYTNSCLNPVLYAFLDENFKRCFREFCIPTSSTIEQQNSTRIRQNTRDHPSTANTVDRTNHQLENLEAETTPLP

Mus musculus [4] = species: Mus musculus; experiment: Antinociceptive action was evaluated by mouse tail flick assay at a dose of 100 nmol in the presence of 3 nmol morphine on 5 mice; assay type: functional
Mus musculus [5] = species: Mus musculus; experiment: Antinociceptive action was evaluated by mouse tail flick assay at a dose of 300 nmol on 5 mice; assay type: functional
Mus musculus [6] = species: Mus musculus; experiment: Antinociceptive action was evaluated by mouse tail flick assay at a dose of 100 nmol on 10 mice; assay type: functional
Mus musculus [7] = species: Mus musculus; experiment: Antinociceptive action was evaluated by mouse tail flick assay at a dose of 100 nmol in the presence of morphine on 9 mice; assay type: functional
Mus musculus [8] = species: Mus musculus; experiment: Antinociceptive action was evaluated by mouse tail flick assay at a dose of 3 nmol on 9 mice; assay type: functional
Mus musculus [9] = species: Mus musculus; experiment: Antinociceptive action was evaluated by mouse tail flick assay at a dose of 10 nmol on 5 mice; assay type: functional

SMILES | pKi [3] | pKi (Mu-type opioid receptor) | other results
CC1(C)SSC(C)(C)[C@@H](NC(=O)[C@@H](N)Cc2ccc(O)cc2)C(=O)NCC(=O)N[C@@H](Cc2ccccc2)C(=O)N[C@H]1C(=O)O |  |  | Activity (Mus musculus [1]): 55%; Activity (Mus musculus [2]): 5%
CNCC12Cc3ccc(O)cc3C(C)(CCC1N)C2 (stereo unspecified) | 7.29 | 7.04 | 
COC[C@]12Cc3ccc(O)cc3[C@](C)(CCc3nnnn31)C2 | < 5.00 |  | 
CN1CNC2CCC3(C)CC2(Cc2ccc(O)cc23)C1 (stereo unspecified) | 7.76 | 7.56 | 
COCC12Cc3ccc(O)cc3[C@](C)(CCCN1C)C2 (single isomer, unassigned) | 6.10 |  | 
CN(C)C1CCC2(C)CC1(CO)Cc1ccc(O)cc12 (single isomer, unassigned; (+)) | 5.54 | 6.08 | 
CN(C)C1CCC2(C)CC1(C)Cc1ccc(O)cc12 (single isomer, unassigned; (+)) | 5.22 |  | 
CN1CC23Cc4ccc(O)cc4C(C)(CCC12)C3 (single isomer, unassigned; (+)) | 6.67 | 6.75 | 
COCC12Cc3ccc(O)cc3C(C)(CCC1N(C)C)C2 (single isomer, unassigned; (+)) | 6.91 | 7.60 | 
CNC1CCC2(C)CC1(CO)Cc1ccc(O)cc12 (single isomer, unassigned; (+)) | 6.36 | 7.38 | 
CN(C)C1CCC2(C)CC1(C)Cc1ccc(O)cc12 (single isomer, unassigned; (-)) | 6.39 | 6.53 | 
CC12CCC(N)C(CO)(Cc3ccc(O)cc31)C2 (single isomer, unassigned; (-)) | 6.96 | 7.39 | 
COCC12Cc3ccc(O)cc3C(C)(CCC1N(C)C)C2 (single isomer, unassigned; (-)) | 7.22 | 7.71 | 
CNC1CCC2(C)CC1(CO)Cc1ccc(O)cc12 (single isomer, unassigned; (-)) | 6.19 | 6.42 | 
COCC12Cc3ccc(O)cc3C(C)(CCC1N)C2 (stereo in doubt; (+)3a) | 7.09 | 8.70 | Antinociception (Mus musculus [4]): 58%; Antinociception (Mus musculus [5]): 13%
CC12CCC(N)C(CO)(Cc3ccc(O)cc31)C2 (stereo in doubt; (+)-3b) | < 5.00 | 7.39 | 
COCC12Cc3ccc(O)cc3C(C)(CCC1N)C2 (stereo in doubt; (-)-3a) | 7.27 | 8.64 | Antinociception (Mus musculus [6]): 37%
CN(C)C1CCC2(C)CC1(CO)Cc1ccc(O)cc12 (stereo in doubt; (-)-3c) | 5.42 | 6.06 | 
COCC12Cc3ccc(O)cc3C(C)(CCC1N)C2 (stereo in doubt; (dl)-22) | 8.18 | 8.70 | Antinociception (Mus musculus [7]): 74%
CN1CC[C@]23c4c5ccc(O)c4O[C@H]2[C@@H](O)C=C[C@H]3[C@H]1C5 [MORPHINE] |  |  | Antinociception (Mus musculus [8]): 65%; Antinociception (Mus musculus [9]): 100%
